Measurements: ChEMBL document CHEMBL4371047, “Effect of α-Methoxy Substitution on the Anti-HIV Activity of Dihydropyrimidin-4(3 H)-ones” (J Med Chem, 2019)

Key:
[1] = test system: Human immunodeficiency virus type 1 reverse transcriptase (Human immunodeficiency virus 1), Q72547 [L100I]
[2] = test system: Human immunodeficiency virus 1; test: Antiviral activity against HIV-1 harboring reverse transcriptase K103N/Y181C double mutant infected in human MT4 cells assessed as inhibition of virus-induced cytopathic effect after 5 days by MTT assay; type: functional, organism-based; conditions: Human immunodeficiency virus 1, MT4, 120 h
[3] = test system: Human immunodeficiency virus type 1 reverse transcriptase (Human immunodeficiency virus 1), Q72547 [Y181I]
[4] = test system: Human immunodeficiency virus 1; test: Antiviral activity against HIV-1 harboring reverse transcriptase Y188L mutant infected in human MT4 cells assessed as inhibition of virus-induced cytopathic effect after 5 days by MTT assay; type: functional, organism-based; conditions: Human immunodeficiency virus 1, MT4, 120 h
[5] = Cytotoxicity against human MT4 cells assessed as reduction in cell viability after 5 days by MTT assay; type: cell-based
[6] = test system: Human immunodeficiency virus type 1 reverse transcriptase (Human immunodeficiency virus 1), Q72547 [K103N]
Description: Inhibition of recombinant HIV-1 His-tagged reverse transcriptase p66/p51 K103N mutant expressed in Escherichia coli assessed as reduction in [3H]dTTP incorporation using poly(rA)/oligo(dT) as template/primer after 20 mins by scintillation counting analysis

[7] = test system: Human immunodeficiency virus 1; test: Resistance index, ratio of EC50 for HIV-1 harboring reverse transcriptase Y181C mutant to EC50 for wild type HIV-1 NL4-3; type: functional
[8] = test system: Human immunodeficiency virus 1; test: Resistance index, ratio of ID50 for recombinant HIV-1 His-tagged reverse transcriptase p66/p51 K103N mutant to ID50 for recombinant wild type HIV-1 reverse transcriptase His-tagged p66/p51
[9] = test system: Human immunodeficiency virus 1; test: Antiviral activity against HIV-1 IRLL98 harboring reverse transcriptase M41L, D67N, Y181C, M184V, R211K, and T215Y mutants infected in human MT4 cells assessed as inhibition of virus-induced cytopathic effect after 5 days by MTT assay; type: functional, organism-based; conditions: Human immunodeficiency virus 1, IRLL98, MT4, 120 h
[10] = test system: Human immunodeficiency virus 1; test: Antiviral activity against HIV-1 harboring reverse transcriptase K103N mutant infected in human MT4 cells assessed as inhibition of virus-induced cytopathic effect after 5 days by MTT assay; type: functional, organism-based; conditions: Human immunodeficiency virus 1, MT4, 120 h
[11] = Therapeutic index, ratio of CC50 for human MT4 cells to EC50 for HIV-1 NL4-3 infected in human MT4 cells; type: toxicity, cell-based; conditions: read-out: Ratio CC50/EC50
[12] = test system: Human immunodeficiency virus 1; test: Resistance index, ratio of EC50 for HIV-1 IRLL98 harboring reverse transcriptase M41L, D67N, Y181C, M184V, R211K, and T215Y mutants to EC50 for wild type HIV-1 NL4-3; type: functional
[13] = test system: Human immunodeficiency virus 1; test: Resistance index, ratio of EC50 for HIV-1 harboring reverse transcriptase K103N mutant to EC50 for wild type HIV-1 NL4-3; type: functional
[14] = test system: Human immunodeficiency virus 1; test: Resistance index, ratio of EC50 for HIV-1 harboring reverse transcriptase Y188L mutant to EC50 for wild type HIV-1 NL4-3; type: functional
[15] = molecular target: Human immunodeficiency virus type 1 reverse transcriptase (Human immunodeficiency virus 1) (UniProt Q72547)
Description: Inhibition of recombinant wild type HIV-1 His-tagged reverse transcriptase p66/p51 expressed in Escherichia coli assessed as reduction in [3H]dTTP incorporation using poly(rA)/oligo(dT) as template/primer after 20 mins by scintillation counting analysis

[16] = test system: Human immunodeficiency virus 1; test: Antiviral activity against wild type HIV 1 NL4-3 infected in human MT4 cells assessed as inhibition of virus-induced cytopathic effect after 5 days by MTT assay; type: functional, organism-based; conditions: Human immunodeficiency virus 1, NL4-3, MT4, 120 h
[17] = test system: Human immunodeficiency virus 1; test: Resistance index, ratio of ID50 for recombinant HIV-1 His-tagged reverse transcriptase p66/p51 L100I mutant to ID50 for recombinant wild type HIV-1 reverse transcriptase His-tagged p66/p51
[18] = test system: Human immunodeficiency virus 1; test: Resistance index, ratio of ID50 for recombinant HIV-1 His-tagged reverse transcriptase p66/p51 Y181I mutant to ID50 for recombinant wild type HIV-1 reverse transcriptase His-tagged p66/p51
[19] = test system: Human immunodeficiency virus 1; test: Antiviral activity against HIV 1 harboring reverse transcriptase Y181C mutant infected in human MT4 cells assessed as inhibition of virus-induced cytopathic effect after 5 days by MTT assay; type: functional, organism-based; conditions: Human immunodeficiency virus 1, MT4, 120 h
[20] = test system: Human immunodeficiency virus 1; test: Potency index, ratio of EFV EC50 to compound EC50 for HIV-1 harboring reverse transcriptase K103N/Y181C double mutant infected in human MT4 cells; type: functional
[21] = test system: Human immunodeficiency virus 1; test: Potency index, ratio of EFV EC50 to compound EC50 for HIV-1 IRLL98 harboring reverse transcriptase M41L, D67N, Y181C, M184V, R211K, and T215Y mutants infected in human MT4 cells; type: functional
[22] = test system: Human immunodeficiency virus 1; test: Potency index, ratio of TMC120 EC50 to compound EC50 for HIV-1 IRLL98 harboring reverse transcriptase M41L, D67N, Y181C, M184V, R211K, and T215Y mutants infected in human MT4 cells; type: functional
[23] = test system: Human immunodeficiency virus 1; test: Resistance index, ratio of EC50 for HIV-1 harboring reverse transcriptase K103N/Y181C double mutant to EC50 for wild type HIV-1 NL4-3; type: functional

Cc1ccnc2c1NC(=O)c1cccnc1N2C1CC1 [NEVIRAPINE]
ID50 [1]: 8500 to 9000 nM | EC50 [2]: > 7000 nM | ID50 [3]: 33000 to 35000 nM | EC50 [4]: > 7000 nM | CC50 at 120 h [5]: > 7000 nM

COC(c1nc(SC2CCCC2)[nH]c(=O)c1C)c1c(F)cccc1Cl (stereo not given)
ID50 [6]: 150 nM | Ratio EC50 [7]: 229 | Ratio [8]: 21 | EC50 [9]: 12 nM | EC50 [10]: 70 nM | selectivity ratio [11]: 52600 | Ratio EC50 [12]: 17 | ID50 [1]: 2300 nM | Ratio EC50 [13]: 100 | Ratio EC50 [14]: 1229 | ID50 [15]: 7 nM | EC50 [16]: 0.7 nM | ID50 [3]: 3800 nM | EC50 [4]: 860 nM | CC50 at 120 h [5]: 36800 nM | Ratio [17]: 329 | Ratio [18]: 543 | EC50 [19]: 160 nM

COC(c1nc(SC(C)C)[nH]c(=O)c1C)c1c(F)cccc1F (stereo not given)
ID50 [6]: 130 nM | Ratio EC50 [7]: 33 | Ratio [8]: 16 | EC50 [9]: 520 nM | EC50 [10]: 1100 nM | selectivity ratio [11]: > 1470 | Ratio EC50 [12]: 31 | ID50 [1]: 570 nM | Ratio EC50 [13]: 65 | Ratio EC50 [14]: 171 | ID50 [15]: 8 nM | EC50 [16]: 17 nM | ID50 [3]: 9100 nM | EC50 [4]: 2900 nM | CC50 at 120 h [5]: > 25000 nM | Ratio [17]: 71 | Ratio [18]: 1140 | EC50 [19]: 560 nM

CCCN(C)c1nc(C(C)c2c(F)cccc2F)c(C)c(=O)[nH]1 (stereo not given)
Ratio EC50 [7]: 9 | Ratio [8]: 6 | EC50 [9]: 7 nM | EC50 [10]: 16 nM | selectivity ratio [11]: > 41000 | Ratio EC50 [12]: 4 | Ratio EC50 [13]: 9 | Ratio EC50 [14]: 26 | EC50 [16]: 1.9 nM | EC50 [4]: 49 nM | CC50 at 120 h [5]: > 78000 nM | Ratio [17]: 6 | Ratio [18]: 40 | EC50 [19]: 17 nM

CCCNc1nc(C(OC)c2c(F)cccc2F)c(C)c(=O)[nH]1 (stereo not given)
ID50 [6]: 220 nM | Ratio EC50 [7]: 20 | Ratio [8]: 5 | EC50 [9]: 16 nM | EC50 [10]: 32 nM | selectivity ratio [11]: 16300 | Ratio EC50 [12]: 3 | ID50 [1]: 980 nM | Ratio EC50 [13]: 6 | Ratio EC50 [14]: 700 | ID50 [15]: 40 nM | EC50 [16]: 5 nM | ID50 [3]: 1700 nM | EC50 [4]: 3500 nM | CC50 at 120 h [5]: 81400 nM | Ratio [17]: 24 | Ratio [18]: 42 | EC50 [19]: 98 nM

COC(c1nc(NC2CCCC2)[nH]c(=O)c1C)c1c(F)cccc1F (stereo not given)
ID50 [6]: 39 nM | Ratio EC50 [7]: 83 - 86 | Ratio [8]: 3 | EC50 [9]: 2 nM | EC50 [10]: 5 to 6 nM | selectivity ratio [11]: 82900 to 93200 | Ratio EC50 [12]: 2 | ID50 [1]: 350 nM | Ratio EC50 [13]: 6 - 7 | Ratio EC50 [20]: 5 - 15 | Ratio EC50 [14]: 822 - 875 | EC50 [2]: 77 nM | ID50 [15]: 15 nM | EC50 [16]: 0.8 to 0.9 nM | Ratio EC50 [21]: 2000 - 3000 | ID50 [3]: 850 nM | EC50 [4]: 700 to 740 nM | CC50 at 120 h [5]: 74600 nM | Ratio [17]: 23 | Ratio [18]: 57 | Ratio EC50 [22]: 3 - 10 | Ratio EC50 [23]: 85 | EC50 [19]: 69 to 75 nM

Cc1c(C(C)c2c(F)cccc2Cl)nc(SC(C)C)[nH]c1=O (stereo not given)
EC50 [9]: 75 nM | selectivity ratio [11]: > 375000 | Ratio EC50 [12]: 1875 | EC50 [2]: 270 nM | CC50 at 120 h [5]: > 15000 nM | Ratio EC50 [23]: 6750

CCCN(C)c1nc(C(OC)c2c(Cl)cccc2Cl)c(C)c(=O)[nH]1 (stereo not given)
ID50 [6]: 38 to 42 nM | Ratio EC50 [7]: 11 - 16 | Ratio [8]: 2 | EC50 [9]: 2 nM | EC50 [10]: 6 to 7 nM | selectivity ratio [11]: 70800 to 78700 | Ratio EC50 [12]: 2 | ID50 [1]: 340 to 420 nM | Ratio EC50 [13]: 7 | Ratio EC50 [20]: 5 - 15 | Ratio EC50 [14]: 30 - 39 | EC50 [2]: 31 nM | ID50 [15]: 16 to 18 nM | EC50 [16]: 0.9 to 1 nM | Ratio EC50 [21]: 2000 - 3000 | ID50 [3]: 740 to 840 nM | EC50 [4]: 30 to 35 nM | CC50 at 120 h [5]: 70800 nM | Ratio [17]: 21 to 23 | Ratio [18]: 46 to 47 | Ratio EC50 [22]: 3 - 10 | Ratio EC50 [23]: 34 | EC50 [19]: 11 to 14 nM
